In US20150181873A1, “HERBICIDE-RESISTANT SUNFLOWER PLANTS, POLYNUCLEOTIDES ENCODING HERBICIDE=RESISTANT ACETO HYDROXY ACID SYNTHASE LARGE SUBUNIT PROTEINS, AND METHODS OF USE” (NIDERA S.A., priority 2013, published 2015):

Key:
Format in all cases: in vivo, Helianthus annuus
Sunflower line S4897 = assay: Greenhouse spray injury rating, line S4897; conditions: imazapyr 360 gm ai/ha (column 360/240)
Text: Sunflower lines S4897, Clearfield® sunflower varieties A, B, C and a conventional non-Clearfield variety were sprayed with three rates of imazamox (Raptor™), 100, 200 and 300 gm ai/ha plus 0.5% Sun It II and two rates of imazapyr (Arsenal™) 160 and 360 gm ai/ha plus 0.5% Sun It II when the plants were at the two to three leaf stage. Ratings were taken at 14 days after application (DAT) for injury. Injury was rated on a scale from 0 to 9 where 0=no injury to 9=dead plant. Twelve plants were sprayed per herbicide/rate treatment. Statistical analysis was conducted with STATGRAPHICS Plus 5.0 by using ANOVA and LSD procedures.
After plants were sprayed, it was realized that a height difference between S4897 and other sunflower varieties would have impacted the actual herbicide dose that was delivered. The spray boom height had been calibrated against S4897 and since the other varieties were taller and closer to the boom they would have received a greater dose of herbicide. Rates were recalibrated for the other varieties to determine the approximate dose they would have received. Assessments were made as presented in Table 2 since it was not possible to make a direct rate comparison due to the effect of the height. For example injury scores were compare for S4897 treated imazamox rate 100 gm ai/ha to the other varieties treated at 75 gm ai/ha. The treatment dose of 300 gm ai/ha for line S4897 was equivalent to the treatment of 200 gm ai/ha for the other varieties, which […].

[1] = system: sunflower restorer line IR79 (A205V); assay: Greenhouse imazapir dose response, IR79; conditions: 14 DAT
Description: (§1) A greenhouse study was conducted to quantify and contrast the imazapir sensivity of the mutants A122T and A205V in different genetic backgrounds at the whole plant level in sunflower. Seeds of the different sunflower lines that were used in this study were obtained under field conditions.
(§2) Seeds were sown in Petri dishes and, after germination, plantlets were transplanted to pots of 10 cm of diameter in a potting media consisting of equal parts of vermiculite, soil and sand. Plants were grown in a greenhouse under natural light conditions supplemented with 400 W sodium halide lamps to provide a 16 hrs daylength. Day/night temperatures were 25 and 20° C., respectively. At the V2 stage 10 plants of each genotype were randomly assigned to each treatment consisting of […] imazapir doses (0, 40, 80, 160, 240, 320, 400 and 480 g ai/ha), and a zero-time biomass determination. Experiment was arranged as a randomized block design with a full factorial (sunflower line×treatment) arrangement of treatments and 10 replications.
(§3) On the day of herbicide application ten plants of each genotype were cut at the cotyledonal node and dried at 60° C. for 48 hrs zero-time for dried weight determination. […] Height was determined as the distance between the cotyledonal node and the apex of each plant. For root biomass determination, each plant was taken from the pot and the potting media was washed out from the roots. Above ground biomass data from each line were converted to biomass accumulation after application by subtracting the appropriate average zero-time biomass from each sample. Dry biomass data were converted to percentages of the untreated control plants within each line to allow direct comparisons between groups.

[2] = system: sunflower hybrid TH11 (A122T); assay: Greenhouse imazapir dose response, TH11; conditions: 14 DAT
Description: as §1, §2, §3

[3] = system: sunflower restorer line GIM 5-6 (A122T); assay: Greenhouse imazapir dose response, GIM 5-6; conditions: GIM5-6 (A122T), 14 DAT
Description: as §1, §2, §3

SMILES: CC(C)C1(C)N=C(c2ncccc2C(=O)O)NC1=O (stereo not drawn) [Imazapyr, imazapyr]
- Injury at 14 DAT (Sunflower line S4897; scale 0-9): 0.8 a
- Injury at 14 DAT (Sunflower line S4897; scale 0-9, listed as imazapyr): very little injury
- biomass accumulation, % of untreated ([1]; 0.5x (40 g ai/ha)): 94.4%
- plant height, % of untreated ([1]; 0.5x (40 g ai/ha)): 92.8%
- root dry weight, % of untreated ([1]; 0.5x (40 g ai/ha)): 98.6%
- biomass accumulation, % of untreated ([1]; 1x (80 g ai/ha)): 74.0%
- plant height, % of untreated ([1]; 1x (80 g ai/ha)): 80.9%
- root dry weight, % of untreated ([1]; 1x (80 g ai/ha)): 53.4%
- biomass accumulation, % of untreated ([1]; 2x (160 g ai/ha)): 67.7%
- plant height, % of untreated ([1]; 2x (160 g ai/ha)): 74.9%
- root dry weight, % of untreated ([1]; 2x (160 g ai/ha)): 42.5%
- biomass accumulation, % of untreated ([1]; 3x (240 g ai/ha)): 49.1%
- plant height, % of untreated ([1]; 3x (240 g ai/ha)): 55.7%
- root dry weight, % of untreated ([1]; 3x (240 g ai/ha)): 38.4%
- biomass accumulation, % of untreated ([1]; 4x (320 g ai/ha)): 44.5%
- plant height, % of untreated ([1]; 4x (320 g ai/ha)): 52.8%
- root dry weight, % of untreated ([1]; 4x (320 g ai/ha)): 31.5%
- biomass accumulation, % of untreated ([1]; 5x (400 g ai/ha)): 40.1%
- plant height, % of untreated ([1]; 5x (400 g ai/ha)): 41.7%
- root dry weight, % of untreated ([1]; 5x (400 g ai/ha)): 23.3%
- biomass accumulation, % of untreated ([1]; 6x (480 g ai/ha)): 35.3%
- plant height, % of untreated ([1]; 6x (480 g ai/ha)): 33.2%
- root dry weight, % of untreated ([1]; 6x (480 g ai/ha)): 21.9%
- Phytotoxicity Index ([2]; 0.5x (40 g ai/ha)): 0.4
- biomass accumulation, % of untreated ([2]; 0.5x (40 g ai/ha)): 96.6%
- plant height, % of untreated ([2]; 0.5x (40 g ai/ha)): 100.4%
- root dry weight, % of untreated ([2]; 0.5x (40 g ai/ha)): 100%
- Phytotoxicity Index ([2]; 1x (80 g ai/ha)): 0.4
- biomass accumulation, % of untreated ([2]; 1x (80 g ai/ha)): 93.9%
- plant height, % of untreated ([2]; 1x (80 g ai/ha)): 99.9%
- root dry weight, % of untreated ([2]; 1x (80 g ai/ha)): 99.0%
- Phytotoxicity Index ([2]; 2x (160 g ai/ha)): 0.4
- biomass accumulation, % of untreated ([2]; 2x (160 g ai/ha)): 81.6%
- plant height, % of untreated ([2]; 2x (160 g ai/ha)): 92.0%
- root dry weight, % of untreated ([2]; 2x (160 g ai/ha)): 86.1%
- Phytotoxicity Index ([2]; 3x (240 g ai/ha)): 0.5
- biomass accumulation, % of untreated ([2]; 3x (240 g ai/ha)): 75.8%
- plant height, % of untreated ([2]; 3x (240 g ai/ha)): 90.5%
- root dry weight, % of untreated ([2]; 3x (240 g ai/ha)): 81.5%
- Phytotoxicity Index ([2]; 4x (320 g ai/ha)): 1.0
- biomass accumulation, % of untreated ([2]; 4x (320 g ai/ha)): 75.0%
- plant height, % of untreated ([2]; 4x (320 g ai/ha)): 90.8%
- root dry weight, % of untreated ([2]; 4x (320 g ai/ha)): 72.6%
- Phytotoxicity Index ([2]; 5x (400 g ai/ha)): 2.0
- biomass accumulation, % of untreated ([2]; 5x (400 g ai/ha)): 60.1%
- plant height, % of untreated ([2]; 5x (400 g ai/ha)): 84.4%
- root dry weight, % of untreated ([2]; 5x (400 g ai/ha)): 68.9%
- Phytotoxicity Index ([2]; 6x (480 g ai/ha)): 2.5
- biomass accumulation, % of untreated ([2]; 6x (480 g ai/ha)): 59.6%
- plant height, % of untreated ([2]; 6x (480 g ai/ha)): 84.4%
- root dry weight, % of untreated ([2]; 6x (480 g ai/ha)): 45.3%
- biomass accumulation, % of untreated ([3]; 0.5x (40 g ai/ha)): 100.0%
- plant height, % of untreated ([3]; 0.5x (40 g ai/ha)): 100.0%
- root dry weight, % of untreated ([3]; 0.5x (40 g ai/ha)): 100%
- biomass accumulation, % of untreated ([3]; 1x (80 g ai/ha)): 96.4%
- plant height, % of untreated ([3]; 1x (80 g ai/ha)): 100.0%
- root dry weight, % of untreated ([3]; 1x (80 g ai/ha)): 88.0%
- biomass accumulation, % of untreated ([3]; 2x (160 g ai/ha)): 97.7%
- plant height, % of untreated ([3]; 2x (160 g ai/ha)): 99.1%
- root dry weight, % of untreated ([3]; 2x (160 g ai/ha)): 90.0%
- biomass accumulation, % of untreated ([3]; 3x (240 g ai/ha)): 95.8%
- plant height, % of untreated ([3]; 3x (240 g ai/ha)): 98.1%
- root dry weight, % of untreated ([3]; 3x (240 g ai/ha)): 98.0%
- biomass accumulation, % of untreated ([3]; 4x (320 g ai/ha)): 90.8%
- plant height, % of untreated ([3]; 4x (320 g ai/ha)): 91.0%
- root dry weight, % of untreated ([3]; 4x (320 g ai/ha)): 80.0%
- biomass accumulation, % of untreated ([3]; 5x (400 g ai/ha)): 81.9%
- plant height, % of untreated ([3]; 5x (400 g ai/ha)): 94.3%
- root dry weight, % of untreated ([3]; 5x (400 g ai/ha)): 80.0%
- biomass accumulation, % of untreated ([3]; 6x (480 g ai/ha)): 78.0%
- plant height, % of untreated ([3]; 6x (480 g ai/ha)): 85.8%
- root dry weight, % of untreated ([3]; 6x (480 g ai/ha)): 65.8%
